How the values were obtained:
Influenza A virus [1] = assay: Antiviral activity against Influenza A virus H5N2 infected in specific pathogen free embryonated egg assessed as survival rate at 10 mM preincubated for 1 hr prior to inoculation measured after 72 hrs (reference value: 0%); type: functional
Influenza A virus [2] = assay: Antiviral activity against Influenza A virus H5N2 infected in specific pathogen free embryonated egg assessed as survival rate at 10 mM preincubated for 1 hr prior to inoculation measured after 48 hrs (reference value: 0%); type: functional
[3] = MRT (0 to infinity) in Sprague-Dawley rat at 2 mg/kg, iv by LC-MS analysis; type: ADME, organism-based; conditions: in vivo
in vitro [4] = conditions: chicken, chicken embryo fibroblasts
Rattus norvegicus [5] = assay: Tmax in Sprague-Dawley rat at 20 mg/kg, po by LC-MS analysis; type: ADME, organism-based; conditions: in vivo
Influenza B virus = conditions: mdck
in vitro [6] = conditions: human, plasma
Influenza A virus [7] = assay: microbe, parasite or virus in culture; conditions: MDCK, 48 h
in vitro [8] = conditions: human, plasma; remark: listed apart in the source
Mus musculus [9] = assay: Acute toxicity in Kunming mouse assessed as gross lesions at 2000 mg/kg, ig after 1 week; type: organism-based; conditions: in vivo, po, 168 h
Influenza A virus [10] = assay: Antiviral activity against Influenza A virus H5N2 infected in specific pathogen free embryonated egg assessed as survival rate at 0.039 mM preincubated for 1 hr prior to inoculation measured after 48 hrs (reference value: 0%); type: functional
Rattus norvegicus [11] = assay: Cmax in Sprague-Dawley rat at 20 mg/kg, po by LC-MS analysis; type: ADME, organism-based; design: dose 20 mg/kg, route oral; conditions: in vivo
Influenza A virus [12] = assay: microbe, parasite or virus in culture; conditions: A/Puerto Rico/8/1934(H1N1), MDCK, 48 h
Rattus norvegicus [13] = assay: Bioavailability in Sprague-Dawley rat at 2 mg/kg, iv by LC-MS analysis; type: ADME, organism-based; conditions: in vivo
in vitro [14] = conditions: human, plasma; remark: listed apart in the source
in vivo [15] = conditions: Sprague-Dawley, rat, iv, 2 mg/kg
[16] = MRT (0 to infinity) in Sprague-Dawley rat at 20 mg/kg, po by LC-MS analysis; type: ADME, organism-based; conditions: in vivo
Rattus norvegicus [17] = assay: Tmax in Sprague-Dawley rat at 2 mg/kg, iv by LC-MS analysis; type: ADME, organism-based; conditions: in vivo
in vivo [18] = conditions: Sprague-Dawley, rat, po, 20 mg/kg
Rattus norvegicus [19] = assay: Clearance in Sprague-Dawley rat at 2 mg/kg, iv by LC-MS analysis; type: ADME, organism-based; conditions: in vivo
Rattus norvegicus [20] = assay: Volume of distribution in Sprague-Dawley rat at 2 mg/kg, iv by LC-MS analysis; type: ADME, organism-based; conditions: in vivo
Influenza A virus [21] = assay: Antiviral activity against Influenza A virus H5N2 infected in specific pathogen free embryonated egg assessed as survival rate at 0.156 mM preincubated for 1 hr prior to inoculation measured after 48 hrs (reference value: 0%); type: functional
Rattus norvegicus [22] = species on record: Rattus norvegicus; conditions: in vivo, po, 20 mg/kg
in vitro [23] = conditions: human, plasma; remark: listed apart in the source
Rattus norvegicus [24] = assay: Half life in Sprague-Dawley rat at 2 mg/kg, iv by LC-MS analysis; type: ADME, organism-based; conditions: in vivo
Rattus norvegicus [25] = species on record: Rattus norvegicus; conditions: in vivo, iv, 2 mg/kg
Influenza A virus [26] = assay: Antiviral activity against Influenza A virus H5N2 infected in specific pathogen free embryonated egg assessed as survival rate at 2.5 mM preincubated for 1 hr prior to inoculation measured after 48 hrs (reference value: 0%); type: functional
Rattus norvegicus [27] = assay: Half life in Sprague-Dawley rat at 20 mg/kg, po by LC-MS analysis; type: ADME, organism-based; conditions: in vivo
in vitro [28] = conditions: human, liver microsomes
in vitro [29] = conditions: human, plasma; remark: listed apart in the source
in vitro [30] = conditions: human, liver microsomes; remark: listed apart in the source
Mus musculus [31] = assay: Acute toxicity in Kunming mouse at 2000 mg/kg, ig after 1 week; type: organism-based; conditions: in vivo, po, 168 h
[32] = Oral bioavailability in Sprague-Dawley rat at 20 mg/kg by LC-MS analysis; type: ADME, organism-based; conditions: in vivo
Influenza A virus [33] = assay: Antiviral activity against Influenza A virus H5N2 infected in specific pathogen free embryonated egg assessed as survival rate at 0.039 mM preincubated for 1 hr prior to inoculation measured after 72 hrs (reference value: 0%); type: functional
Influenza A virus [34] = assay: Antiviral activity against Influenza A virus H5N2 infected in specific pathogen free embryonated egg assessed as survival rate at 0.156 mM preincubated for 1 hr prior to inoculation measured after 72 hrs (reference value: 0%); type: functional
in vitro [35] = conditions: human, liver microsomes; remark: listed apart in the source
Influenza A virus [36] = assay: Antiviral activity against Influenza A virus H5N2 infected in specific pathogen free embryonated egg assessed as survival rate at 0.625 mM preincubated for 1 hr prior to inoculation measured after 48 hrs (reference value: 0%); type: functional
Influenza A virus [37] = assay: Antiviral activity against Influenza A virus H5N2 infected in specific pathogen free embryonated egg assessed as survival rate at 2.5 mM preincubated for 1 hr prior to inoculation measured after 72 hrs (reference value: 0%); type: functional
in vitro [38] = conditions: human, liver microsomes; remark: listed apart in the source
in vitro [39] = conditions: dog, MDCK cells
Influenza A virus [40] = assay: Antiviral activity against Influenza A virus H5N2 infected in specific pathogen free embryonated egg assessed as survival rate at 0.625 mM preincubated for 1 hr prior to inoculation measured after 72 hrs (reference value: 0%); type: functional
[41] = human, microsomes, 20 min

In the case of CCC(CC)O[C@@H]1C=C(C(=O)O)C[C@H](NCc2ccc(Sc3ccccc3)cc2)[C@H]1NC(C)=O, the survival at 10000 µM (Influenza A virus [1]) is reported as 60%, the survival at 10000 µM (Influenza A virus [2]) is reported as 100% and the MRT inf [3] is reported as 2.03 h. The CC50 at 48 h (in vitro [4]) was > 200 µM, the Tmax (Rattus norvegicus [5]) was 0.83 h and the EC50 (Influenza B virus) was 19 µM. For the same compound, the half-life at 2 µM (in vitro [6]) was > 4.82 h, the EC50 (Influenza A virus [7]) was 71 µM and the remaining at 1 h, 2 µM (in vitro [8]) was 100%. The Activity (Mus musculus [9]) was “Non-Toxic”, the survival at 39 µM (Influenza A virus [10]) was 0% and the Cmax (Rattus norvegicus [11]) was 407 µg/mL. It also gave an EC50 (Influenza A virus [12]) of 0.06 µM, an F (Rattus norvegicus [13]) of 100% and a remaining at 10 min, 2 µM (in vitro [14]) of 102%. For the same compound, the AUC(0-t) (in vivo [15]) was 1460 ng·h/mL, the MRT inf [16] was 4.05 h and the Tmax (Rattus norvegicus [17]) was 4.98 min. The AUC(0-t) (in vivo [18]) was 1500 ng·h/mL, the CL (Rattus norvegicus [19]) was 1.41 mL/h/kg and the Vd (Rattus norvegicus [20]) was 3.51 L/kg. The survival at 156 µM (Influenza A virus [21]) was 0%, the AUC (Rattus norvegicus [22]) was 1558.63 ng·h/mL and the remaining at 0.5 h, 2 µM (in vitro [23]) was 100%. It also gave a t1/2 (Rattus norvegicus [24]) of 1.76 h, an AUC (Rattus norvegicus [25]) of 1464.41 ng·h/mL and a survival at 2500 µM (Influenza A virus [26]) of 80%. For the same compound, the t1/2 (Rattus norvegicus [27]) was 3.82 h, the half-life at 2 uL (in vitro [28]) was > 2.42 h and the remaining at 2 h, 2 µM (in vitro [29]) was 91.6%. For the same compound, the remaining at 1 h, 2 uL (in vitro [30]) was 101%, the Activity (Mus musculus [31]) was “Non-Toxic” and the bioavailability [32] was 10.3%. The survival at 39 µM (Influenza A virus [33]) was 0%, the survival at 156 µM (Influenza A virus [34]) was 0% and the microsomal CLint at 20 min, 2 uL (in vitro [35]) was < 9.6 µL/min/mg. The survival at 625 µM (Influenza A virus [36]) was 60%, the survival at 2500 µM (Influenza A virus [37]) was 20% and the remaining at 1 h, 2 uL (in vitro [38]) was 115%. The CC50 at 48 h (in vitro [39]) was > 250 µM and the survival at 625 µM (Influenza A virus [40]) was 0%.
For CCC(CC)O[C@@H]1C=C(C(=O)O)C[C@H](NCc2ccc(-c3ccc(SC)cc3)cc2)[C@H]1NC(C)=O, the CC50 at 48 h (in vitro [4]) was > 200 µM.
In the case of CCC(CC)O[C@@H]1C=C(C(=O)O)C[C@H](NCc2ccc(C(C)(C)C)cc2)[C@H]1NC(C)=O, the CC50 at 48 h (in vitro [4]) is reported as > 200 µM.
For CCC(CC)O[C@@H]1C=C(C(=O)O)C[C@H](NCc2ccc(SC3CCCC3)cc2)[C@H]1NC(C)=O, the CC50 at 48 h (in vitro [4]) was > 200 µM.
With CCC(CC)Oc1cccc(CN[C@H]2CC(C(=O)O)=C[C@@H](OC(CC)CC)[C@@H]2NC(C)=O)c1 the CC50 at 48 h (in vitro [4]) was > 200 µM.
In the case of CCC(CC)O[C@@H]1C=C(C(=O)O)C[C@H](NCc2ccc(S(=O)(=O)c3ccccc3)cc2)[C@H]1NC(C)=O, the CC50 at 48 h (in vitro [4]) is reported as > 200 µM.
In the case of CCC(CC)O[C@@H]1C=C(C(=O)O)C[C@H](NCc2ccc(OC)cc2)[C@H]1NC(C)=O, the CC50 at 48 h (in vitro [4]) is reported as > 200 µM, the EC50 (Influenza B virus) is reported as > 100 µM and the EC50 (Influenza A virus [7]) is reported as > 100 µM. For the same compound, the EC50 (Influenza A virus [12]) was 3.7 µM and the CC50 at 48 h (in vitro [39]) was > 250 µM.
In the case of CCC(CC)O[C@@H]1C=C(C(=O)O)C[C@H](NCc2ccc(SC3CCCCC3)cc2)[C@H]1NC(C)=O, the CC50 at 48 h (in vitro [4]) is reported as > 200 µM, the EC50 (Influenza B virus) is reported as > 100 µM and the EC50 (Influenza A virus [7]) is reported as > 100 µM. The EC50 (Influenza A virus [12]) was 17 µM and the CC50 at 48 h (in vitro [39]) was > 250 µM.
With CCC(CC)O[C@@H]1C=C(C(=O)O)C[C@H](NCc2ccc(-c3csc4ccccc34)cc2)[C@H]1NC(C)=O the CC50 at 48 h (in vitro [4]) was > 200 µM.
With CCC(CC)O[C@@H]1C=C(C(=O)O)C[C@H](NCc2ccc(C(C)C)cc2)[C@H]1NC(C)=O the CC50 at 48 h (in vitro [4]) was > 200 µM.
With CCC(CC)O[C@@H]1C=C(C(=O)O)C[C@H](NCc2ccc(SCC(C)C)cc2)[C@H]1NC(C)=O the CC50 at 48 h (in vitro [4]) was > 200 µM.
Work on O=C(O)Cc1ccccc1Nc1c(Cl)cccc1Cl [DICLOFENAC] yielded a CLH [41] of 5.28 mL/h/kg, a half-life at 2 uL (in vitro [28]) of 0.237 h and a remaining at 1 h, 2 uL (in vitro [30]) of 5.4%. The microsomal CLint at 20 min, 2 uL (in vitro [35]) was 97.7 µL/min/mg and the remaining at 1 h, 2 uL (in vitro [38]) was 103%.
In the case of CCC(CC)O[C@@H]1C=C(C(=O)O)C[C@H](N)[C@H]1NC(C)=O [OSELTAMIVIR CARBOXYLATE], the survival at 10000 µM (Influenza A virus [1]) is reported as 0%, the survival at 10000 µM (Influenza A virus [2]) is reported as 60% and the CC50 at 48 h (in vitro [4]) is reported as > 200 µM. It also gave an EC50 (Influenza B virus) of 2.9 µM, an EC50 (Influenza A virus [7]) of 1.2 µM and a survival at 39 µM (Influenza A virus [10]) of 0%. It also gave an EC50 (Influenza A virus [12]) of 0.041 µM, a survival at 156 µM (Influenza A virus [21]) of 0% and a survival at 2500 µM (Influenza A virus [26]) of 20%. The survival at 39 µM (Influenza A virus [33]) was 0%, the survival at 156 µM (Influenza A virus [34]) was 0% and the survival at 625 µM (Influenza A virus [36]) was 0%. The survival at 2500 µM (Influenza A virus [37]) was 0%, the CC50 at 48 h (in vitro [39]) was > 250 µM and the survival at 625 µM (Influenza A virus [40]) was 0%.
CC(C)[N+](C)(CCOC(=O)C1c2ccccc2Oc2ccccc21)C(C)C.[Br-] [PROPANTHELINE BROMIDE] showed a half-life at 2 µM (in vitro [6]) of 0.18 h, a remaining at 1 h, 2 µM (in vitro [8]) of 2.1% and a remaining at 10 min, 2 µM (in vitro [14]) of 54.9%. It also gave a remaining at 0.5 h, 2 µM (in vitro [23]) of 19.1%.
In the case of NC(=O)c1ncn([C@@H]2O[C@H](CO)[C@@H](O)[C@H]2O)n1 [RIBAVIRIN], the CC50 at 48 h (in vitro [4]) is reported as > 200 µM.
With CC(=O)N[C@H]1[C@H]([C@H](O)[C@H](O)CO)OC(C(=O)O)=C[C@@H]1NC(=N)N [ZANAMIVIR] the CC50 at 48 h (in vitro [4]) was > 200 µM, the EC50 (Influenza B virus) was 0.9 µM and the EC50 (Influenza A virus [7]) was 0.3 µM. The EC50 (Influenza A virus [12]) was 0.038 µM and the CC50 at 48 h (in vitro [39]) was > 250 µM.

— ChEMBL document CHEMBL4270670 (J Med Chem, 2018)
